For the series the following is noted: for mass density: 101.33 kPa, Liquid.

Numbers after ± are expanded uncertainties.

As to `CCCCO` [butan-1-ol], the surface tension liquid-gas runs as follows: (288.15 K) 24.68 ± 0.29 mN/m; (293.15 K) 24.21 ± 0.29 mN/m; (298.15 K) 23.79 ± 0.29 mN/m; (303.15 K) 23.34 ± 0.28 mN/m; (308.15 K) 22.79 ± 0.28 mN/m. The mass density turned out to be 813.32 ± 0.23 kg/m3 (288.15 K); 809.56 ± 0.23 kg/m3 (293.15 K); 805.72 ± 0.24 kg/m3 (298.15 K); 801.91 ± 0.24 kg/m3 (303.15 K); 798.07 ± 0.24 kg/m3 (308.15 K).

With `CCCCCCC` [heptane], the surface tension liquid-gas runs as follows: (288.15 K) 20.81 ± 0.27 mN/m; (293.15 K) 20.27 ± 0.27 mN/m; (298.15 K) 19.68 ± 0.27 mN/m; (303.15 K) 19.19 ± 0.26 mN/m; (308.15 K) 18.93 ± 0.26 mN/m. For the same molecule, the mass density (288.15 K) came to 687.98 ± 0.65 kg/m3; the mass density (293.15 K) stood at 683.78 ± 0.65 kg/m3; the mass density (298.15 K) is reported as 679.55 ± 0.66 kg/m3; the mass density (303.15 K) is given as 675.3 ± 0.66 kg/m3; the mass density (308.15 K) came to 671 ± 0.67 kg/m3.

On to `CCCCCCO` [hexan-1-ol], for which the surface tension liquid-gas (288.15 K) stood at 26.08 ± 0.32 mN/m; the surface tension liquid-gas (293.15 K) stood at 25.61 ± 0.32 mN/m; the surface tension liquid-gas (298.15 K) came to 25.19 ± 0.32 mN/m; the surface tension liquid-gas (303.15 K) is 24.74 ± 0.32 mN/m; the surface tension liquid-gas (308.15 K) stood at 24.19 ± 0.31 mN/m. The mass density is reported as 822.28 ± 0.91 kg/m3 (288.15 K); 818.75 ± 0.92 kg/m3 (293.15 K); 815.23 ± 0.93 kg/m3 (298.15 K); 811.6 ± 0.94 kg/m3 (303.15 K); 808 ± 0.95 kg/m3 (308.15 K).

Regarding `CCCCCCCCO` [octan-1-ol], the surface tension liquid-gas runs as follows: (288.15 K) 27.41 ± 0.31 mN/m; (293.15 K) 26.94 ± 0.31 mN/m; (298.15 K) 26.52 ± 0.31 mN/m; (303.15 K) 26.07 ± 0.3 mN/m; (308.15 K) 25.52 ± 0.3 mN/m. For the same molecule, the mass density by setting is: (288.15 K) 828.55 ± 0.45 kg/m3; (293.15 K) 825.11 ± 0.45 kg/m3; (298.15 K) 821.64 ± 0.46 kg/m3; (303.15 K) 818.19 ± 0.46 kg/m3; (308.15 K) 814.69 ± 0.47 kg/m3.

For the origin of these results see the NIST ThermoML archive (doi:10.1021/je060179e).
